Reference: patent US10472320B2, “Process to prepare phenolic ethylenediamine diacetic acid compounds” (Akzo Nobel Chemicals International B.V., priority 2015, dated 2019)

Conditions: for appearance of extracted aqueous ligand solution (precipitate formation): after last methyl isobutyl ketone extraction; for concentration of o,o-HBED at which a clear solution was obtained after addition of water: dilution with water after precipitation; for concentration of o,o-HBED at which a clear solution was obtained after addition of water / concentration of o,o-HBED in the extracted aqueous ligand solution: expressed as H4-o,o-HBED; for concentration of o,o-HBED in the extracted aqueous ligand solution: after phenol extraction with methyl isobutyl ketone
Protocol: (§1) Phenol was extracted from the reaction mixture with methyl isobutyl ketone (250 ml and 3 times 125 ml).
as §1
(§2) Phenol was extracted from the reaction mixture with methyl isobutyl ketone (75 ml and 3 times 50 ml).
(§3) Phenol was extracted from the reaction mixture with methyl isobutyl ketone (100 ml and 3 times 50 ml).
as §3, §2
Phenol was extracted from the reaction mixture with methyl isobutyl ketone (85 ml and 3 times 50 ml).
as §2

SMILES | appearance of extracted aqueous ligand solution (precipitate formation) | concentration of o,o-HBED at which a clear solution was obtained after addition of water | concentration of o,o-HBED in the extracted aqueous ligand solution
O=C(O)CN(CCN(CC(=O)O)Cc1ccccc1O)Cc1ccccc1O [Comparative Example 2, N,N′-di(2-hydroxybenzyl)ethylenediamine-N,N′-diacetic acid, reference compound] | turned turbid and a lot of product precipitated | 9.6% | –
O=C(O)CN(CCN(CC(=O)O)Cc1ccccc1O)Cc1ccccc1O [Example 4, N,N′-di(2-hydroxybenzyl)ethylenediamine-N,N′-diacetic acid] | remained clear without the formation of any precipitates | – | approximately 22%
O=C(O)CN(CCN(CC(=O)O)Cc1ccccc1O)Cc1ccccc1O [Example 3, N,N′-di(2-hydroxybenzyl)ethylenediamine-N,N′-diacetic acid] | became slightly turbid, but the solution could still be handled easily | – | approximately 22%
O=C(O)CN(CCN(CC(=O)O)Cc1ccccc1O)Cc1ccccc1O [Example 6, N,N′-di(2-hydroxybenzyl)ethylenediamine-N,N′-diacetic acid] | – | – | approximately 22%
O=C(O)CN(CCN(CC(=O)O)Cc1ccccc1O)Cc1ccccc1O [Comparative Example 1, N,N′-di(2-hydroxybenzyl)ethylenediamine-N,N′-diacetic acid, reference compound] | soon a large amount of precipitate was formed | approximately 6.2% | –
O=C(O)CN(CCN(CC(=O)O)Cc1ccccc1O)Cc1ccccc1O [Example 1, N,N′-di(2-hydroxybenzyl)ethylenediamine-N,N′-diacetic acid] | – | – | approximately 26%
O=C(O)CN(CCN(CC(=O)O)Cc1ccccc1O)Cc1ccccc1O [Example 5, N,N′-di(2-hydroxybenzyl)ethylenediamine-N,N′-diacetic acid] | remained clear without the formation of any precipitates | – | approximately 22%
O=C(O)CN(CCN(CC(=O)O)Cc1ccccc1O)Cc1ccccc1O [Example 2, N,N′-di(2-hydroxybenzyl)ethylenediamine-N,N′-diacetic acid] | became slightly turbid, but the solution could still be handled easily | – | approximately 23%
O=C(O)CN(CCN(CC(=O)O)Cc1ccccc1O)Cc1ccccc1O [Comparative Example 3, N,N′-di(2-hydroxybenzyl)ethylenediamine-N,N′-diacetic acid, reference compound] | turned turbid and a lot of product precipitated | – | –
O=C(O)CN(CCN(CC(=O)O)Cc1ccccc1O)Cc1ccccc1O [Example 7, N,N′-di(2-hydroxybenzyl)ethylenediamine-N,N′-diacetic acid] | remained clear without the formation of any precipitates | – | approximately 25%
